Patent US8173653B2, “Pyridiazinone derivatives for the treatment of tumours” (Merck Patent Gesellschaft MIT Beschraenkter Haftung, priority 2005, dated 2012)

Molecular target: T1, Met kinase (Homo sapiens, UniProt P08581)
T1 construct: 6His (N); purchased Upstate 14-526; host or cells: insect cells (Sf21; S. frugiperda), baculovirus
Assay: Met kinase inhibition (enzyme assay), flashplate method
Type: biochemical
Procedure: Flashplate Method (Met Kinase)
The test plates used are 96-well Flashplate® microtitre plates from Perkin Elmer (Cat. No. SMP200). The components of the kinase reaction described below are pipetted into the assay plate. The Met kinase and the substrate poly Ala-Glu-Lys-Tyr, (PAGLT, 6:2:5:1), are incubated for 3 hrs at room temperature with radioactively labelled ^33P-ATP in the presence and absence of test substances in a total volume of 100 μl. The reaction is terminated using 150 μl of a 60 mM EDTA solution. After incubation for a further 30 min at room temperature, the supernatants are filtered off with suction, and the wells are washed three times with 200 μl of 0.9% NaCl solution each time. The measurement of the bound radioactivity is carried out by means of a scintillation measuring instrument (Topcount NXT, Perkin-Elmer).
The full value used is the inhibitor-free kinase reaction. This should be approximately in the range 6000-9000 cpm. The pharmacological zero value used is staurosporin in a final concentration of 0.1 mM. The inhibitory values (IC50) are determined using the RS1_MTS program.
Kinase reaction conditions per well: • 30 μl of assay buffer • 10 μl of substance to be tested in assay buffer with 10% of DMSO • 10 μl of ATP (final concentration 1 μM cold, 0.35 μCi of ^33P-ATP) • 50 μl of Met kinase/substrate mixture in assay buffer; (10 ng of enzyme/well, 50 ng of pAGLT/well)
Assay Buffer: • 50 mM HEPES • 3 mM magnesium chloride • 3 μM sodium orthovanadate • 3 mM manganese(II) chloride • 1 mM dithiothreitol (DTT) • pH=7.5 (to be set using sodium hydroxide)

T1 sequence (P08581 974-1390 limits assumed): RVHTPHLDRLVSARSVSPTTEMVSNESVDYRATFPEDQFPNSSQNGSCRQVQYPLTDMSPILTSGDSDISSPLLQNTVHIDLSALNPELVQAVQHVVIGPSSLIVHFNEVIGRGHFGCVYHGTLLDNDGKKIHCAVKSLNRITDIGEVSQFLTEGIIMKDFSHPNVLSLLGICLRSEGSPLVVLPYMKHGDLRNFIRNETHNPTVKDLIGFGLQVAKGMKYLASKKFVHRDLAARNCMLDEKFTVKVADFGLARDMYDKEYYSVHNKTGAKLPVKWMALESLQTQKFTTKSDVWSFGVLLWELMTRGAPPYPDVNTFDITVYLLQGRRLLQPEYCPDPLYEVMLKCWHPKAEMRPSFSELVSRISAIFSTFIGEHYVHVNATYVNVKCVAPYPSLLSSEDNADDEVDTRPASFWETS

| IC50 [µM] | SMILES |
| --- | --- |
| 0.01 to 1 | COCCCOC(=O)Nc1cccc(Cn2nc(-c3cc(F)cc(F)c3)ccc2=O)c1 [A75, 3-Methoxypropyl {3-[3-(3,5-difluorophenyl)-6-oxo-6H-pyridazin-1-ylmethyl]phenyl}carbamate] |
| 0.01 to 1 | O=c1ccc(-c2cc(F)cc(F)c2)nn1Cc1ccc2[nH]ncc2c1 [A161, 6-(3,5-difluorophenyl)-2-(1H-indazol-5-ylmethyl)-2H-pyridazin-3-one] |
| 0.01 to 1 | O=C(Nc1cccc(Cn2nc(-c3cc(F)cc(F)c3)ccc2=O)c1)OCCCN1CCCC1 [A74, 3-Pyrrolidin-1-ylpropyl {3-[3-(3,5-difluorophenyl)-6-oxo-6H-pyridazin-1-ylmethyl]phenyl}carbamate] |
| 0.01 to 1 | O=C(Nc1cccc(Cn2nc(-c3cc(F)c(F)c(F)c3)ccc2=O)c1)OCCN1CCOCC1 [A95, 2-Morpholin-4-ylethyl {3-[6-oxo-3-(3,4,5-trifluorophenyl)-6H-pyridazin-1-ylmethyl]phenyl}carbamate] |
| 0.01 to 1 | CCNC(=O)Nc1cccc(Cn2nc(-c3ccc(F)cc3)ccc2=O)c1 [A18, 1-ethyl-3-{3-[3-(4-fluorophenyl)-6-oxo-6H-pyridazin-1-ylmethyl]phenyl}urea] |
| 0.01 to 1 | CCOC(=O)Nc1cccc(Cn2nc(-c3ccc(Cl)cc3)ccc2=O)c1 [A3, ethyl {3-[3-(4-chlorophenyl)-6-oxo-6H-pyridazin-1-ylmethyl]phenyl}carbamate] |
| 0.01 to 1 | COc1ccc(-c2ccc(=O)n(Cc3cccc(NC(C)=O)c3)n2)cc1OC [A4] |
| 0.01 to 1 | O=C(Nc1cccc(Cn2nc(-c3cc(F)cc(F)c3)ccc2=O)c1)OCCN1CCNCC1 [A143, 2-Piperazin-1-ylethyl {3-[3-(3,5-difluorophenyl)-6-oxo-6H-pyridazin-1-ylmethyl]phenyl}carbamate] |
| 0.01 to 1 | CN1CCN(CCCCOC(=O)Nc2cccc(Cn3nc(-c4cc(F)cc(F)c4)ccc3=O)c2)CC1 [A103, 4-(4-Methylpiperazin-1-yl)butyl {3-[3-(3,5-difluorophenyl)-6-oxo-6H-pyridazin-1-ylmethyl]phenyl}carbamate] |
| 0.01 to 1 | O=C(Nc1cccc(Cn2nc(-c3ccc(F)c(F)c3)ccc2=O)c1)OCCN1CCOCC1 [A81, 2-Morpholin-4-ylethyl {3-[3-(3,4-difluorophenyl)-6-oxo-6H-pyridazin-1-ylmethyl]phenyl}carbamate] |
| 0.01 to 1 | CN(C)CCCCOC(=O)Nc1cccc(Cn2nc(-c3cc(F)cc(F)c3)ccc2=O)c1 [A110, 4-Dimethylaminobutyl {3-[3-(3,5-difluorophenyl)-6-oxo-6H-pyridazin-1-ylmethyl]phenyl}carbamate] |
| 0.01 to 1 | CN(C)CCCOC(=O)Nc1cccc(Cn2nc(-c3cccc(C#N)c3)ccc2=O)c1 [A61, 3-Dimethylaminopropyl {3-[3-(3-cyanophenyl)-6-oxo-6H-pyridazin-1-ylmethyl]phenyl}carbamate] |
| 0.01 to 1 | CCNC(=O)Nc1cccc(Cn2nc(-c3cccc(Cl)c3)ccc2=O)c1 [A20] |
| 0.01 to 1 | CN(C)CCCOC(=O)Nc1cccc(Cn2nc(-c3ccc(Cl)cc3)ccc2=O)c1 [A15, 3-dimethylaminopropyl {3-[3-(4-chlorophenyl)-6-oxo-6H-pyridazin-1-ylmethyl]phenyl}carbamate] |
| 0.01 to 1 | CNCCCOC(=O)Nc1cccc(Cn2nc(-c3cc(F)cc(F)c3)ccc2=O)c1 [A142, 3-methylaminopropyl {3-[3-(3,5-difluorophenyl)-6-oxo-6H-pyridazin-1-ylmethyl]phenyl}carbamate] |
| 0.01 to 1 | CCOC(=O)Nc1cccc(Cn2nc(-c3cccc(Br)c3)ccc2=O)c1 [A6] |
| 0.01 to 1 | N#Cc1cccc(-c2ccc(=O)n(Cc3cccc(NC(=O)OCCCN4CCOCC4)c3)n2)c1 [A88, 3-Morpholin-4-ylpropyl{3-[3-(3-cyanophenyl)-6-oxo-6H-pyridazin-1-ylmethyl]phenyl}carbamate] |
| 0.01 to 1 | O=c1[nH]c2ccc(Cn3nc(-c4cc(F)cc(F)c4)ccc3=O)cc2[nH]1 [A169, 5-[3-(3,5-Difluorophenyl)-6-oxo-6H-pyridazin-1-ylmethyl]-1,3-dihydrobenzimidazol-2-one] |
| 0.01 to 1 | CCN(CC)CCCOC(=O)Nc1cccc(Cn2nc(-c3cc(F)cc(F)c3)ccc2=O)c1 [A109, 3-Diethylaminopropyl {3-[3-(3,5-difluorophenyl)-6-oxo-6H-pyridazin-1-ylmethyl]phenyl}carbamate] |
| 0.01 to 1 | CN1CCCC1CCOC(=O)Nc1cccc(Cn2nc(-c3cc(F)cc(F)c3)ccc2=O)c1 (stereo not shown) [A105, 2-(1-Methylpyrrolidin-2-yl)ethyl {3-[3-(3,5-difluorophenyl)-6-oxo-6H-pyridazin-1-ylmethyl]phenyl}carbamate] |

| IC50 [µM] | SMILES |
| --- | --- |
| 0.01 to 1 | CCOC(=O)Nc1cccc(Cn2nc(-c3ccccc3)ccc2=O)c1 [A9] |
| 0.01 to 1 | O=C(Nc1cccc(Cn2nc(-c3cc(F)cc(F)c3)ccc2=O)c1)OCCCN1CCNCC1 [A145, 3-Piperazin-1-ylpropyl {3-[3-(3,5-difluorophenyl)-6-oxo-6H-pyridazin-1-ylmethyl]phenyl}carbamate] |
| 0.01 to 1 | CCOC(=O)Nc1cccc(Cn2nc(-c3cccc(Cl)c3)ccc2=O)c1 [A10] |
| 0.01 to 1 | CN1CCN(CCCOC(=O)Nc2cccc(Cn3nc(-c4cccc(C#N)c4)ccc3=O)c2)CC1 [A107, 3-(4-Methylpiperazin-1-yl)propyl {3-[3-(3-cyanophenyl)-6-oxo-6H-pyridazin-1-ylmethyl]phenyl}carbamate] |
| 0.01 to 1 | CCOC(=O)Nc1cccc(Cn2nc(-c3cccc(F)c3)ccc2=O)c1 [A38] |
| 0.01 to 1 | O=c1[nH]c2ccc(Cn3nc(-c4cccc(F)c4)ccc3=O)cc2[nH]1 [A127, 5-[3-(3-fluorophenyl)-6-oxo-6H-pyridazin-1-ylmethyl]-1,3-dihydrobenzimidazol-2-one] |
| 0.01 to 1 | O=c1ccc(-c2ccc(F)cc2)nn1Cc1ccc2nsnc2c1 [A14] |
| 0.01 to 1 | CNCCCCOC(=O)Nc1cccc(Cn2nc(-c3cc(F)cc(F)c3)ccc2=O)c1 [A155, 4-Methylaminobutyl {3-[3-(3,5-difluorophenyl)-6-oxo-6H-pyridazin-1-ylmethyl]phenyl}carbamate] |
| 0.01 to 1 | CN1CCCC(COC(=O)Nc2cccc(Cn3nc(-c4cc(F)cc(F)c4)ccc3=O)c2)C1 (stereo not shown) [A106, 1-Methylpiperidin-3-ylmethyl {3-[3-(3,5-difluorophenyl)-6-oxo-6H-pyridazin-1-ylmethyl]phenyl}carbamate] |
| 0.01 to 1 | CN(C)CCCOC(=O)Nc1cccc(Cn2nc(-c3cccc(Cl)c3)ccc2=O)c1 [A17] |
| 0.01 to 1 | O=C(Nc1cccc(Cn2nc(-c3cc(F)cc(F)c3)ccc2=O)c1)OCC1CCNCC1 [A156, Piperidin-4-ylmethyl {3-[3-(3,5-difluorophenyl)-6-oxo-6H-pyridazin-1-ylmethyl]phenyl}carbamate] |
| 0.01 to 1 | CCOC(=O)Nc1cccc(Cn2nc(-c3ccc(F)cc3)ccc2=O)c1 [A5] |
| 0.01 to 1 | O=c1ccc(-c2ccc(F)cc2)nn1Cc1ccc2c(c1)OCO2 [A12] |
| 0.01 to 1 | O=C(Nc1cccc(Cn2nc(-c3cc(F)c(F)c(F)c3)ccc2=O)c1)OCCCN1CCOCC1 [A78, 3-Morpholin-4-ylpropyl {3-[6-oxo-3-(3,4,5-trifluorophenyl)-6H-pyridazin-1-ylmethyl]phenyl}carbamate] |
| 0.01 to 1 | CC(=O)Nc1cccc(Cn2nc(-c3cccc(O)c3)ccc2=O)c1 [A2, N-{3-[3-(3-hydroxyphenyl)-6-oxo-6H-pyridazin-1-ylmethyl]phenyl}acetamide] |
| 0.01 to 1 | CN1CCN(CCCOC(=O)Nc2cccc(Cn3nc(-c4cc(F)c(F)c(F)c4)ccc3=O)c2)CC1 [A101, 3-(4-Methylpiperazin-1-yl)propyl {3-[6-oxo-3-(3,4,5-trifluorophenyl)-6H-pyridazin-1-ylmethyl]phenyl}carbamate] |
| 0.01 to 1 | CCOC(=O)Nc1cccc(Cn2nc(-c3cccs3)ccc2=O)c1 [A19] |
| 0.01 to 1 | CC(=O)Nc1cccc(Cn2nc(-c3ccc(F)cc3)ccc2=O)c1 [A7] |
| 0.01 to 1 | CN1CCN(CCOC(=O)Nc2cccc(Cn3nc(-c4ccc(F)c(F)c4)ccc3=O)c2)CC1 [A92, 2-(4-Methylpiperazin-1-yl)ethyl {3-[3-(3,4-difluorophenyl)-6-oxo-6H-pyridazin-1-ylmethyl]phenyl}carbamate] |
| 0.01 to 1 | O=C(Nc1cccc(Cn2nc(-c3cccs3)ccc2=O)c1)OCCCN1CCOCC1 [A71, 3-Morpholin-4-ylpropyl [3-(6-oxo-3-thiophen-2-yl-6H-pyridazin-1-ylmethyl)phenyl]carbamate] |
